From ChEMBL document CHEMBL1932991, “Novel ATP competitive MK2 inhibitors with potent biochemical and cell-based activity throughout the series” (Bioorg Med Chem Lett, 2012)

Assays:
[1] = target: T1, MAP kinase-activated protein kinase 2 (Homo sapiens, UniProt P49137); assay: Inhibition of MK2 using Fluo-betaA-11A NeoMPS as substrate pre-incubated for 30 mins before substrate addition measured after 2 hrs by IMAP assay
[2] = system: THP-1; assay: Inhibition of LPS-induced TNFalpha production in human THP1 cells pre-incubated for 30 mins prior to LPS-induction measured after 4 hrs by ELISA; format: functional, cell-based
[3] = system: PBMC; assay: Inhibition of LPS-induced TNFalpha production in human PBMC pre-incubated for 30 mins prior to LPS-induction measured after 4 hrs by ELISA; format: functional, cell-based
[4] = target: T1, MAP kinase-activated protein kinase 2; assay: Inhibition of MK2-mediated HSP27 phosphorylation in LPS-stimulated human THP1 cells pre-incubated for 60 mins prior to LPS-induction measured after 60 mins by multi-spot assay; format: cell-based, THP-1
[5] = Dissociation constant, pKa of the compound at pH 7.4; format: physicochemical
[6] = Plasma protein binding in human; format: ADME, cell-free; settings: read-out: PPB (converted)
[7] = Permeability of the compound by PAMPA; format: ADME; settings: for Papp: read-out: permeability

T1 sequence (P49137 whole entry): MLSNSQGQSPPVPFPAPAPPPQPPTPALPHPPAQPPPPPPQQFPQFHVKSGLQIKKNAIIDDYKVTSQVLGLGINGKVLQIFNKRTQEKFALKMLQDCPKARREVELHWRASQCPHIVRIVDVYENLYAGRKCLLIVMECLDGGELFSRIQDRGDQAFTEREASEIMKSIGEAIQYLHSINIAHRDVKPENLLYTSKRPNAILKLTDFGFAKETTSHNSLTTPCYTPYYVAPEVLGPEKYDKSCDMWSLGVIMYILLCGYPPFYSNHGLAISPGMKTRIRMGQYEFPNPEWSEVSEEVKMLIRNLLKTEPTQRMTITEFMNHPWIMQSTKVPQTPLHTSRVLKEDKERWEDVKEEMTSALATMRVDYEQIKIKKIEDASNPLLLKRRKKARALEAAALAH

Compound | EC50 [1] | EC50 ([2]; Homo sapiens, THP-1) | EC50 ([3]; Homo sapiens, PBMC) | EC50 [4] | pKa [5] | fraction unbound [6] | Papp [7] | EC50 ([3]; pbmc) | EC50 ([2]; thp-1) | permeability [7]
Cc1ccc(C(=O)Nc2nccc(-c3cc4c([nH]3)C3(CCNCC3)CNC4=O)n2)cc1C | 3.1 nM | 3400 nM |  |  |  |  |  |  |  | 
Cc1ccc(C(=O)Nc2cc(-c3cc4c([nH]3)C3(CCNCC3)CNC4=O)ccn2)cc1C | 1 nM | 230 nM | 890 nM | 350 nM |  |  |  |  |  | 
O=C(Nc1nccc(-c2cc3c([nH]2)C2(CCNCC2)CNC3=O)n1)c1ccc2ccccc2c1 | 5.1 nM | 3400 nM |  |  |  |  |  |  |  | 
O=C(Nc1cc(-c2cc3c([nH]2)C2(CCNCC2)CNC3=O)ccn1)c1ccc2ccccc2c1 | 0.72 nM | 320 nM | 230 nM | 280 nM | 9.2 | 0.003 |  |  |  | 
O=C1NCC2(CCNCC2)c2[nH]c(-c3ccnc(NC(=O)c4cccc5ccccc45)n3)cc21 | 14 nM | > 10000 nM |  |  |  |  |  |  |  | 
O=C1NCC2(CCNCC2)c2[nH]c(-c3ccnc(NC(=O)c4cccc5ccccc45)c3)cc21 | 0.96 nM | 490 nM | 650 nM | 520 nM |  |  |  |  |  | 
O=C(Nc1nccc(-c2cc3c([nH]2)C2(CCNCC2)CNC3=O)n1)c1ccc(F)cc1 | 15 nM | 7900 nM |  |  |  |  |  |  |  | 
O=C(Nc1cc(-c2cc3c([nH]2)C2(CCNCC2)CNC3=O)ccn1)c1ccc(F)cc1 | 1.6 nM | 1300 nM | 1400 nM | 3700 nM |  |  |  |  |  | 
Cc1ccc(C(=O)Nc2cc(-c3cc4c([nH]3)C3(CCN(C)CC3)CNC4=O)ccn2)cc1C | 2.3 nM | 720 nM |  | 920 nM |  |  |  |  |  | 
CN1CCC2(CC1)CNC(=O)c1cc(-c3ccnc(NC(=O)c4ccc5ccccc5c4)c3)[nH]c12 | 2.6 nM | 1100 nM | 70 nM | 730 nM | 8.3 | 0.005 |  |  |  | 
O=C(Nc1cc(-c2cc3c([nH]2)C2(CCNCC2)CNC3=O)ccn1)c1cccc(F)c1 | 1.1 nM | 780 nM | 150 nM | 680 nM |  |  | 0.6 ×10⁻⁶ cm/s |  |  | 
CN1CCC2(CC1)CNC(=O)c1cc(-c3ccnc(NC(=O)c4cccc(F)c4)c3)[nH]c12 | 2.5 nM | 540 nM | 30 nM | 640 nM |  |  |  |  |  | 
O=C(Nc1cc(-c2cc3c([nH]2)C2(CCNCC2)CNC3=O)ccn1)c1cccc(OC(F)(F)F)c1 | 1.5 nM | 80 nM | 160 nM | 130 nM | 9.1 | 0.042 |  |  |  | 
CN1CCC2(CC1)CNC(=O)c1cc(-c3ccnc(NC(=O)c4cccc(OC(F)(F)F)c4)c3)[nH]c12 | 2.7 nM | 1000 nM | 50 nM | 830 nM | 8.4 | 0.027 |  |  |  | 
O=C(Nc1cc(-c2cc3c([nH]2)C2(CCNCC2)CNC3=O)ccn1)c1ccc(C(F)(F)F)cc1 | 1.6 nM | 660 nM | 1600 nM | 1300 nM |  |  |  |  |  | 
O=C(Nc1cc(-c2cc3c([nH]2)C2(CCNCC2)CNC3=O)ccn1)c1ccccn1 | 1.4 nM | 720 nM | 260 nM | 550 nM |  |  |  |  |  | 
O=C(Nc1cc(-c2cc3c([nH]2)C2(CCNCC2)CNC3=O)ccn1)c1ccncc1 | 2.6 nM | > 10000 nM | 2600 nM | > 10000 nM |  |  |  |  |  | 
Cc1ccc(C(=O)Nc2cc(-c3cc4c([nH]3)C3(CCCNC3)CNC4=O)ccn2)cc1C (racemic) | 8.1 nM |  |  | 690 nM |  |  |  | 40 nM | 460 nM | 
O=C(Nc1cc(-c2cc3c([nH]2)C2(CCCNC2)CNC3=O)ccn1)c1ccc2ccccc2c1 (racemic) | 7.6 nM |  |  | 1100 nM |  |  |  | 70 nM | 780 nM | 
O=C1NCC2(CCCNC2)c2[nH]c(-c3ccnc(NC(=O)c4cccc5ccccc45)c3)cc21 (racemic) | 5.1 nM | 220 nM | 390 nM | 1100 nM |  |  | 0.1 ×10⁻⁶ cm/s |  |  | 

Compound | EC50 [1] | EC50 ([2]; Homo sapiens, THP-1) | EC50 ([3]; Homo sapiens, PBMC) | EC50 [4] | pKa [5] | fraction unbound [6] | Papp [7] | EC50 ([3]; pbmc) | EC50 ([2]; thp-1) | permeability [7]
O=C(Nc1cc(-c2cc3c([nH]2)C2(CCCNC2)CNC3=O)ccn1)c1ccc(F)cc1 (racemic) | 8.9 nM |  |  | 870 nM |  |  |  |  | 320 nM | 0.5 ×10⁻⁶ cm/s
O=C(Nc1cc(-c2cc3c([nH]2)C2(CCCNC2)CNC3=O)ccn1)c1cccc(F)c1 (racemic) | 6.2 nM | 560 nM | 30 nM |  |  |  | 1.9 ×10⁻⁶ cm/s |  |  | 
O=C(Nc1cc(-c2cc3c([nH]2)C2(CCCNC2)CNC3=O)ccn1)c1cccc(OC(F)(F)F)c1 (racemic) | 11 nM | 620 nM | 200 nM | 610 nM | 8.2 | 0.013 |  |  |  | 
O=C(Nc1cc(-c2cc3c([nH]2)C2(CCCNC2)CNC3=O)ccn1)c1ccc(C(F)(F)F)cc1 (racemic) | 9.1 nM | 1300 nM | 480 nM | 1200 nM |  |  |  |  |  | 
O=C(Nc1cc(-c2cc3c([nH]2)C2(CCCNC2)CNC3=O)ccn1)c1ccccn1 (racemic) | 4.2 nM | 480 nM | 130 nM | 660 nM |  |  | 0.2 ×10⁻⁶ cm/s |  |  | 
O=C(Nc1cc(-c2cc3c([nH]2)C2(CCCNC2)CNC3=O)ccn1)c1cc(F)cc(F)c1 (racemic) | 2.5 nM | 1100 nM | 140 nM | 590 nM |  |  | 6.3 ×10⁻⁶ cm/s |  |  | 
O=C(Nc1cc(-c2cc3c([nH]2)C2(CCCNC2)CNC3=O)ccn1)c1cccc(C(F)(F)F)c1 (racemic) | 3.3 nM | 850 nM | 140 nM | 590 nM |  |  |  |  |  | 
Cc1ccc(C(=O)Nc2cc(-c3cc4c([nH]3)C3(CCNC3)CNC4=O)ccn2)cc1C (racemic) | 0.71 nM | 340 nM | 150 nM | 240 nM |  |  | 0.2 ×10⁻⁶ cm/s |  |  | 
O=C(Nc1cc(-c2cc3c([nH]2)C2(CCNC2)CNC3=O)ccn1)c1ccc2ccccc2c1 (racemic) | 0.62 nM | 1700 nM |  | 390 nM | 8.5 | 0.002 |  |  |  | 
O=C(Nc1cc(-c2cc3c([nH]2)C2(CCNC2)CNC3=O)ccn1)c1ccc(F)cc1 (racemic) | 1.3 nM | 1100 nM | 200 nM | 840 nM |  |  |  |  |  | 
O=C(Nc1cc(-c2cc3c([nH]2)C2(CCNC2)CNC3=O)ccn1)c1cccc(F)c1 (racemic) | 1.9 nM | 1100 nM | 170 nM | 480 nM |  |  | 0.6 ×10⁻⁶ cm/s |  |  | 
O=C(Nc1cc(-c2cc3c([nH]2)C2(CCNC2)CNC3=O)ccn1)c1cccc(OC(F)(F)F)c1 (racemic) | 1.6 nM | 690 nM | 650 nM | 400 nM | 8.4 | 0.017 |  |  |  | 
O=C(Nc1cc(-c2cc3c([nH]2)C2(CCNC2)CNC3=O)ccn1)c1ccccn1 (racemic) | 4.1 nM | 3900 nM |  | 660 nM |  |  |  |  |  | 
O=C(Nc1cc(-c2cc3c([nH]2)C2(CCCNC2)CNC3=O)ccn1)c1ccc2ccccc2c1 (single isomer, unassigned) | 129 nM |  |  |  | 8.2 | 0.004 |  |  |  | 
O=C(Nc1cc(-c2cc3c([nH]2)C2(CCCNC2)CNC3=O)ccn1)c1ccc(F)cc1 (single isomer, unassigned; isomer 2) | 31 nM |  |  | 7400 nM |  |  |  | 1600 nM | > 10000 nM | 
O=C(Nc1cc(-c2cc3c([nH]2)C2(CCCNC2)CNC3=O)ccn1)c1ccc2ccccc2c1 (single isomer, unassigned; stereoisomer 1) | 2.5 nM | 510 nM |  | 530 nM |  |  |  | 170 nM |  | 
Cc1ccc(C(=O)Nc2cc(-c3cc4c([nH]3)C3(CCCNC3)CNC4=O)ccn2)cc1C (single isomer, unassigned; stereoisomer 2) | 32 nM |  |  | 5300 nM |  |  | 1 ×10⁻⁶ cm/s | 1200 nM | 8500 nM | 
Cc1ccc(C(=O)Nc2cc(-c3cc4c([nH]3)C3(CCCNC3)CNC4=O)ccn2)cc1C (stereo in doubt; 3dS1) | 5.5 nM |  |  |  |  |  |  |  | 650 nM | 
O=C(Nc1cc(-c2cc3c([nH]2)C2(CCCNC2)CNC3=O)ccn1)c1ccc(F)cc1 (stereo in doubt; 6dS1) | 2.4 nM |  |  | 320 nM |  |  |  | 70 nM | 310 nM | 1.1 ×10⁻⁶ cm/s
